Where two headings read alike, the source gives them in different places.
Legend:
[1] = SOD mimetic activity / radical scavenging assay (INT method); format: biochemical; details: for Activity at c1 (%), inhibition of radical transfer to INT: c1 = 0.572 mM
Experimental: The radical scavenging ability with respect to the SOD mimetic activity of the prepared complexes was determined by the INT method. This method is based on a competitive reaction with the superoxide anion radical from KO2 between the measured compound (complex) and 2-(4-Iodophenyl)-3-(4-nitrophenyl)-5-phenyl-2H-tetrazolium chloride (INT). INT reacts with the single electron of O2^− and produces blue-green formazane detected as light absorption at 500 nm. Complexes with good antiradical activity also react with O2^−, and as a result of this, less formazane is formed.
The first type of antiradical activity measurements involved the determination of inhibition percent values of electron transfer on INT at specific concentrations (Table 9). Two concentrations were selected to achieve good solubility of the complexes (4 and 1 mM for 4a and 4c, 2 and 1 mM for 4b). The complex 4b dissolved readily at a concentration of 4 mM, but the mixture was very dark, making measurements at 500 nm difficult. Therefore, a less concentrated initial solution was used (2 mM) as the higher concentration. In total, 0.5 mL of the initial solutions was used to prepare sample solutions that also contained INT and KO2 solutions and DMSO with an overall volume of 3.5 mL. The resulting concentrations were c1 = 0.572 mM, c1* = 0.286 mM and c2 = 0.143 mM, respectively. Complexes 4a and 4c once again provided high percentages at c1 (approximately 96–99%) but the activity dropped below 24% at c2, while complex 4b maintained mediocre activity at both concentrations. It seems that the concentration increase had only a small effect on the activity of 4b; something similar was also observed in the DNA cleavage study for complex 4b. The complexes were compared with the model compound cystamine, which was used as a standard for superoxide antiradical scavenging due to the presence of a free […] group, which is also present in glutathione.
To improve the comparability of SOD mimetic activity, IC50 concentrations were determined by performing a series of measurements with decreasing concentration. IC50 values were calculated from the trend function equation as the concentration with 50% inhibition of electron transfer on INT (Table 10).
The method is based on the agent 2-(4-Iodophenyl)-3-(4-nitrophenyl)-5-phenyl-2H-tetrazolium chloride (INT), able to scavenge a superoxide radical anion from KO2. The reaction produces a blue-green formazane, which is detected as light absorption at 500 nm. The radical scavengers (measured complexes) compete with INT for radicals and reduce the formation of formazane and light absorption at 500 nm. Antiradical activity was measured on a Synergy HT BioTek spectrophotometer. DMSO was used as the solvent for the complex and KO2 (saturated solution). The INT initial solution (4 M) was prepared in a sodium tetraborate buffer solution with pH adjusted to 7.1 with HCl.
For each measurement, an initial solution of the sample (0.5 mL) of a specific concentration (4–0.1 mM) was prepared in DMSO. Due to the addition of INT (0.5 mL) and KO2 (0.5 mL) solutions and additional DMSO (2 mL), the concentrations of the measured complexes decreased seven times (3.5 mL of total mixture). Each result was the average value of three parallel measurements expressed with a standard deviation (more information in the Supplementary Materials). For the determination of SOD-IC50, several measurements with decreasing sample concentration were performed. […] A linear trend function of the percentage of inhibition and negative logarithm of concentration was used to calculate the SOD-IC50 value as the concentration with 50% inhibition of INT–formazane formation. […]
Green: 5c 5 mM (S. cerevisiae 1x10^9 cells /ml + 0.5 ml 0.9% NaCl + 0.5 ml 5c + 0.1 ml Resazurin OX) measured in time
S6. SOD Mimetic A ctivity A ssay
For each measurement, an initial solution of the sample of a specific concentration was prepared […]

[2] = system: A549 cells; experiment: MTT cytotoxicity assay, A549; format: cell-based, human; details: 72 h
Experimental: (§1) The cytotoxicity study of the prepared copper(II) complexes was performed using the MTT assay on human cell lines—A549 (adenocarcinoma human alveolar basal epithelial cell line), HepG2 (human liver cancer cell line) and HEL (human lung fibroblast cell line, normal cells).
(§2) The cytotoxicity of the prepared copper(II) complexes in human cell lines was evaluated using the 3-(4,5-dimethylthiazol-2-yl)-2,5-diphenyltetrazolium bromide (MTT) assay following the protocol by Mosmann. Briefly, A549 (human lung epithelial cells, carcinoma), HepG2 (human liver epithelial cells, carcinoma) and HEL (human lung fibroblast cells, normal) cells were seeded in plastic 96-well plates at a density of 1.5–2 × 10^4 cells per well. […] After the treatment, the samples were washed with phosphate-buffered saline (PBS), followed by 4 h of incubation with 1 mg/mL of MTT. Subsequently, the MTT solution was removed, and the formed formazane solids were dissolved in dimethyl sulfoxide for 30 min. The photometric evaluation (at 540 nm and 690 nm) was carried out using an xMark™ Microplate Absorbance Spectrophotometer (Bio-Rad, Hercules, CA, USA) [88].
(§3) A549 (ATCC® CCL-185), HepG2 (ATCC® HB-8065) and HEL299 (ATCC® CCL-137) cells were obtained from Lambda Life (Bratislava, Slovakia). A549 cells were kept in Dulbecco’s Modified Eagle’s Medium (DMEM) supplemented with 10% fetal bovine serum (FBS) and 1% antibiotics (penicillin and streptomycin). HepG2 cells were kept in Williams medium supplemented with 10% fetal bovine serum (FBS) and 1% antibiotics (penicillin and streptomycin). HEL299 cells were kept in Minimum Essential Medium (MEM) supplemented with 10% fetal bovine serum (FBS), 1% antibiotics (penicillin and streptomycin) and 1% non-essential amino acids (NEAA). The cells were cultured in a humidified atmosphere of 5% CO2 at 37 °C. Once the cells reached approximately 80% confluence, they were harvested and subcultured after trypsin treatment.

[3] = system: HepG2 cells; experiment: MTT cytotoxicity assay, HepG2; format: cell-based, human; details: 72 h
Experimental: as §1, §2, §3

[4] = 50% inhibition of electron transfer on INT, read-out: SOD-IC50

SMILES | IC50 [1, 4] | Activity at c1 (%), inhibition of radical transfer to INT [1] | IC50 [2] | IC50 [3] | IC50 ([1]; INT method, read-out: concentration of 50% inhibition (SOD-IC50), given as range) | Activity at c1* (%), inhibition of radical transfer to INT ([1]; c1* = 0.286 mM (reduced for complex 4b)) | Activity at c2 (%), inhibition of radical transfer to INT ([1]; c2 = 0.143 mM)
COc1ccccc1CN=Cc1ccccc1[O-].COc1ccccc1CN=Cc1ccccc1[O-].[Cl-].[Cl-].[Cu+2].[Cu+2] [Complex 4a, [Cu2 (Sal-2-MeOBn)2 Cl2]] | 242 ± 1 µM | 95.8 ± 2.2% | 66.4 ± 6.2 µM | 17.9 ± 2.6 µM |  |  | 
COc1cccc(CN=Cc2ccccc2[O][Cu][O]c2ccccc2C=NCc2cccc(OC)c2)c1 [Complex 4b, [Cu (Sal-3-MeOBn)2]] | 1090 ± 56 µM |  | 127 ± 8.1 µM | 32.8 ± 4.9 µM | > 1000 µM | 40.1 ± 1.9 * % | 35.8 ± 1.3%
COc1ccc(CN=Cc2ccccc2[O-])cc1.COc1ccc(CN=Cc2ccccc2[O-])cc1.[Cl-].[Cl-].[Cu+2].[Cu+2] [Complex 4c, [Cu2 (Sal-4-MeOBn)2 Cl2]] | 189 ± 11 µM | 98.9 ± 0.5% | 72 ± 6.5 µM | 21.6 ± 4.9 µM |  |  | 
